In patent US20220348572A1, “BRIDGED HETEROCYCLYL-SUBSTITUTED PYRIMIDINE COMPOUND, PREPARATION METHOD THEREFOR, AND PHARMACEUTICAL USE THEREOF” (The National Institutes of Pharmaceutical R&D Co., Ltd., priority 2019, published 2022) one finds IC50 data, which are given here for twelve compounds.

This assay deals with T1, JAK1 kinase (Homo sapiens, UniProt P23458).
T1 construct: purchased Invitrogen PV4744
T1 sequence (P23458 866-1154 limits assumed): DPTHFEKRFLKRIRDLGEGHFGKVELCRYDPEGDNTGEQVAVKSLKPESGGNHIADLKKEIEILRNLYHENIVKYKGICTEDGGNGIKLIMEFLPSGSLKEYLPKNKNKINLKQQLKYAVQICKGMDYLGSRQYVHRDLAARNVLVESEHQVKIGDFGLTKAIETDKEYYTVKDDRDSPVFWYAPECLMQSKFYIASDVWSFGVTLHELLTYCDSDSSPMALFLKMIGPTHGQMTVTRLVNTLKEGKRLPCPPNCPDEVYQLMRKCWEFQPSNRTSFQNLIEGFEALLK
As to the kind of experiment: In vitro inhibitory activity on JAK1 kinase (ADP-Glo Kinase Assay). Type of assay: biochemical. Particulars: JAK1 kinase 4 nM, 1 mM ATP. The method, then: Test Example 1: Determination of In Vitro Inhibitory Activity of the Compounds of the Present Invention on JAK1 Kinase Experimental materials: JAK1 kinase (Invitrogen, PV4744), ATP (Promega, V915B), ADP-Glo Kinase Assay (Promega, V9101), IRS1 (Signalchem, 140-58-1000). Sample preparation: The compounds of the present invention and the control product were dissolved in DMSO solvent respectively to formulate into 10 mM initial liquid. The maximum concentration of the compound was 10 μM, 3-fold dilution, 10 concentration gradients, and duplicate wells for each concentration gradient. Experimental processs: 0.1 μL of the compound to be tested was transferred into a 384 reaction plate (PE, 6007290) via Echo and centrifuged at 1000 rpm/min for 1 min. 5 μL JAK1 kinase (final concentration of 4 nM) was transferred into the 384 reaction plate, which was then centrifuged at 1000 rpm/min for 1 min, and incubated at 25° C. for 15 min. 5 μL substrate mixture (1 mM ATP, IRS1 0.05 mg/ml, kinase buffer solution) was transferred into the 384 reaction plate, which was then centrifuged at 1000 rpm/min for 1 min, and incubated at 25° C. for 60 min. 10 μL ADP-Glo was transferred into the 384 reaction plate, which was then centrifuged at 1000 rpm/min for 1 min, and incubated at 25° C. for 40 min. 20 μL test solution was transferred into the 384 reaction plate, which was then centrifuged at 1000 rpm/min for 1 min and incubated at 25° C. for 40 min. RLU (Relative luminescence unit) signal was read by using an Envision multifunctional plate reader. The signal intensity was used to characterize the degree of the kinase activity. […] IC50 value of 0-100 nM is shown as A, IC50 value of 100-300 nM is shown as B, IC50 value of 300-1000 nM is shown as C, and IC50 value which is greater than 1000 nM is shown as D. NT means not tested.
A general note: In ADP-Glo the light output rises with the ADP produced.
One may read the IC50 as the concentration that gives 50% inhibition. A low value points to greater potency. With `O=C(NCC(F)(F)F)N1C2C=C(c3ccnc(Nc4cnn(C5CC5)c4)n3)CC1CC2` (stereo not drawn) [Compound 43, 3-(2-((1-cyclopropyl-1H-pyrazol-4-yl)amino)pyrimidin-4-yl)-N-(2,2,2-trifluoroethyl)-8-azabicyclo[3.2.1]oct-2-ene-8-carboxamide], the IC50 is less than 100 nM.

Consider `Cn1cc(Nc2nccc(C3=CC4CCC(C3)N4C(=O)NCC(F)F)n2)cn1` (stereo not drawn) [Compound 44, N-(2,2-difluoroethyl)-3-(2-((1-methyl-1H-pyrazol-4-yl)amino)pyrimidin-4-yl)-8-azabicyclo[3.2.1]oct-2-ene-8-carboxamide], for which the half-inhibitory concentration (IC50) is less than 100 nM. The value for `CCn1cc(Nc2nccc(C3=CC4CCC(C3)N4C(=O)[C@@H]3CC3(F)F)n2)cn1` (stereo partly drawn) [Compound 45, ((S)-2,2-Difluorocyclopropyl)(3-(2-((1-ethyl-1H-pyrazol-4-yl)amino)pyrimidin-4-yl)-8-azabicyclo[3.2.1]oct-2-en-8-yl)methanone] was 100 to 300 nM.

Compound `CC(C)n1cc(Nc2nccc(C3=CC4CCC(C3)N4C(=O)[C@@H]3CC3(F)F)n2)cn1` (stereo partly drawn) [Compound 46, ((S)-2,2-Difluorocyclopropyl)(3-(2-((1-isopropyl-1H-pyrazol-4-yl)amino)pyrimidin-4-yl)-8-azabicyclo[3.2.1]oct-2-en-8-yl)methanone] came in with a 50% inhibitory concentration (IC50) of 100 to 300 nM.

On to `Cn1cc(Nc2nccc(C3=CC4CCC(C3)N4C(=O)[C@@H]3C[C@H]3C#N)n2)cn1` (stereo partly drawn) [Compound 47, (1R,2R)-2-(3-(2-((1-methyl-1H-pyrazol-4-yl)amino)pyrimidin-4-yl)-8-azabicyclo[3.2.1]oct-2-ene-8-formyl)cyclopropane-1-carbonitrile], for which the IC50 was in the range of 100 to 300 nM. `Cn1cc(Nc2nccc(C3=CC4CCC(C3)N4C(=O)C3(C)CC3(F)F)n2)cn1` (stereo not drawn) [Compound 48, (2,2-difluoro-1-methylcyclopropyl)(3-(2-((1-methyl-1H-pyrazol-4-yl)amino)pyrimidin-4-yl)-8-azabicyclo[3.2.1]oct-2-en-8-yl)methanone]: the half-inhibitory concentration (IC50) was greater than 1000 nM. With `Cn1cc(Nc2nccc(C3=CC4CCC(C3)N4C(=O)C3CC3C(F)(F)F)n2)cn1` (stereo not drawn) [Compound 49, (3-(2-((1-methyl-1H-pyrazol-4-yl)amino)pyrimidin-4-yl)-8-azabicyclo[3.2.1]oct-2-en-8-yl)(2-(trifluoromethyl)cyclopropyl)methanone] the figure was less than 100 nM. `Cn1cc(Nc2nccc(C3=CC4CCC(C3)N4C(=O)C3CC3(F)Cl)n2)cn1` (stereo not drawn) [Compound 50, (2-chloro-2-fluorocyclopropyl)(3-(2-((1-methyl-1H-pyrazol-4-yl)amino)pyrimidin-4-yl)-8-azabicyclo[3.2.1]oct-2-en-8-yl)methanone] returned a concentration for half-maximal inhibition (IC50) of 100 to 300 nM. As to `Cn1cc(Nc2nccc(C3=CC4CCC(C3)N4C(=O)C3(C(F)(F)F)CC3)n2)cn1` (stereo not drawn) [Compound 52, (3-(2-((1-methyl-1H-pyrazol-4-yl)amino)pyrimidin-4-yl)-8-azabicyclo[3.2.1]oct-2-en-8-yl)(1-(trifluoromethyl)cyclopropyl)methanone], the IC50 was greater than 1000 nM. With `C#CCC(=O)N1C2C=C(c3ccnc(Nc4cnn(C)c4)n3)CC1CC2` (stereo not drawn) [Compound 53, 1-(3-(2-((1-methyl-1H-pyrazol-4-yl)amino)pyrimidin-4-yl)-8-azabicyclo[3.2.1]oct-2-en-8-yl)but-3-yn-1-one] the figure was greater than 1000 nM. `C[C@H](NC(=O)N1C2C=C(c3ccnc(Nc4cnn(C)c4)n3)CC1CC2)C(F)(F)F` (stereo partly drawn) [Compound 55, 3-(2-((1-Methyl-1H-pyrazol-4-yl)amino)pyrimidin-4-yl)-N-((S)-1,1,1-trifluoropropane-2-yl)-8-azabicyclo[3.2.1]oct-2-ene-8-carboxamide] had an IC50 of less than 100 nM. With `C[C@@H](NC(=O)N1C2C=C(c3ccnc(Nc4cnn(C)c4)n3)CC1CC2)C(F)(F)F` (stereo partly drawn) [Compound 56, 3-(2-((1-Methyl-1H-pyrazol-4-yl)amino)pyrimidin-4-yl)-N-((R)-1,1,1-trifluoropropane-2-yl)-8-azabicyclo[3.2.1]oct-2-ene-8-carboxamide] the figure was 300 to 1000 nM.
